Source: ChEMBL document CHEMBL1132509, “Aminoisoquinolines: design and synthesis of an orally active benzamidine isostere for the inhibition of factor XA” (Bioorg Med Chem Lett, 1999)

Assays:
Coagulation factor X = Coagulation factor X (Bos taurus, UniProt P00743); experiment: In vitro evaluation of inhibitory activity against Coagulation factor X in prothrombinase complex
[1] = Maximum concentration in plasma was reported at 2 hour; assay type: ADME, organism-based; details: read-out: CPmax
[2] = Ratio of inhibitory activity against Plasmin to that of factor Xa
[3] = Ratio inhibitory activity against coagulation factor IIa to that of factor Xa
[4] = Ratio of inhibitory activity against […] to that of factor Xa
[5] = Ratio of inhibitory activity against plasminogen activator to that of factor Xa
[6] = Ratio of inhibitory activity against activated protein C to that of factor Xa
Serine protease 1 = Serine protease 1 (Homo sapiens, UniProt P07477); experiment: In vitro evaluation of inhibitory activity against trypsin
Serine protease 1, sequence (P07477 whole entry): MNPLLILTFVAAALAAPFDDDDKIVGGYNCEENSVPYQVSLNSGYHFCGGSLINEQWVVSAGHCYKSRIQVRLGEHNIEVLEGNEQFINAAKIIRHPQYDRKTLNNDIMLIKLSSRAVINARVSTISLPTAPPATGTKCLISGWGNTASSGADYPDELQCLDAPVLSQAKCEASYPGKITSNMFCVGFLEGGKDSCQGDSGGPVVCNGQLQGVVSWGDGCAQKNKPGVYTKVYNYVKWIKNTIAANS

Prothrombin = Prothrombin (Homo sapiens, UniProt P00734); experiment: In vitro evaluation of inhibitory activity against Coagulation factor II in prothrombinase complex
[7] = Maximum concentration in plasma was reported at 0.5 hour; assay type: ADME, organism-based; details: read-out: CPmax
[8] = pKa value was determined.; assay type: physicochemical

Coagulation factor X, sequence (P00743 41-180 limits assumed): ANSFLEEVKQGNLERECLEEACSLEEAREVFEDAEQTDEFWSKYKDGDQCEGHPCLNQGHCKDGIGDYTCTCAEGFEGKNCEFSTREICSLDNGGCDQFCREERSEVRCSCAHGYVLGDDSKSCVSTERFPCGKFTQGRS
Coagulation factor X, sequence (P00743 234-492 limits assumed): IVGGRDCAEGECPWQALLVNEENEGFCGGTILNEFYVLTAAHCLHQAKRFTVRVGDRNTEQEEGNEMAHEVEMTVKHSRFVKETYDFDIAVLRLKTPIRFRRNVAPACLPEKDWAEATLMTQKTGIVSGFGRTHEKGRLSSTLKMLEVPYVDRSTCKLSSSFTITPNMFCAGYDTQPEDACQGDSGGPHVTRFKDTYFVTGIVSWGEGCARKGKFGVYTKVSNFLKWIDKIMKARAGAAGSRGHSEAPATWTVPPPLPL

COc1ccc2ccc(S(=O)(=O)N[C@H]3CCN(Cc4cc5c(N)nccc5cc4OC)C3=O)cc2c1
Ki (Coagulation factor X): 890 nM

Nc1nccc2ccc(CN3CC[C@H](NS(=O)(=O)c4cc5ncccc5s4)C3=O)cc12
Cmax [1]: 2700 nM | Ratio [2]: > 330 | Ratio [3]: > 181 | Ratio [4]: > 131 | Ratio [5]: > 395 | Ratio [6]: > 841

COc1ccc2ccc(S(=O)(=O)NC3CCN(Cc4cc5c(N)nccc5s4)C3=O)cc2c1 (stereo not drawn)
Ki (Coagulation factor X): 250 nM | Ki (Serine protease 1): > 2900 nM | Ki (Prothrombin): ~4000 nM

COc1ccc2ccc(S(=O)(=O)N(C)[C@H]3CCN(Cc4csc(C(=N)N)c4)C3=O)cc2c1
Cmax [7]: 3100 nM

COc1ccc2ccc(S(=O)(=O)N[C@H]3CCN(Cc4cccc(C(=N)N)c4)C3=O)cc2c1
pKa [8]: 11.6 | Ki (Serine protease 1): 850 nM

COc1ccc2ccc(S(=O)(=O)NC3CCN(Cc4ccc5ccc(N)nc5c4)C3=O)cc2c1 (stereo not drawn)
pKa [8]: 7.3 | Ki (Coagulation factor X): 370 nM | Ki (Serine protease 1): > 2900 nM | Ki (Prothrombin): ~4000 nM

COc1ccc2ccc(S(=O)(=O)N[C@H]3CCN(Cc4ccc5ccnc(N)c5c4)C3=O)cc2c1
pKa [8]: 7.6 | Ki (Serine protease 1): > 2900 nM | Ki (Prothrombin): 1350 nM

COc1ccc2ccc(S(=O)(=O)N[C@H]3CCN(Cc4ccc5ccnc(O)c5c4)C3=O)cc2c1
Ki (Coagulation factor X): > 1200 nM

COc1ccc2ccc(S(=O)(=O)NC3CCN(Cc4ccc5nc(N)ccc5c4)C3=O)cc2c1 (stereo not drawn)
pKa [8]: 7.3 | Ki (Coagulation factor X): 1200 nM | Ki (Serine protease 1): > 2900 nM | Ki (Prothrombin): > 4000 nM

COc1ccc2ccc(S(=O)(=O)N(C)[C@H]3CCN(Cc4ccc5ncnc(N)c5c4)C3=O)cc2c1
pKa [8]: 5.3 | Ki (Coagulation factor X): 1600 nM | Ki (Serine protease 1): > 2900 nM | Ki (Prothrombin): > 4000 nM

N=C(N)c1cccc(CN2CC[C@H](NS(=O)(=O)c3cc4ncccc4s3)C2=O)c1
Ratio [2]: > 280 | Ratio [3]: > 150 | Ratio [4]: > 110 | Ki (Coagulation factor X): 26 nM | Ratio [5]: > 335 | Ratio [6]: 440

COc1ccc2ccc(S(=O)(=O)N[C@H]3CCN(Cc4cc(C(=N)N)ccc4N)C3=O)cc2c1
Ki (Coagulation factor X): 6 nM

COc1ccc2ccc(S(=O)(=O)N[C@H]3CCN(Cc4ccc5ccnc(Cl)c5c4)C3=O)cc2c1
Ki (Coagulation factor X): > 1200 nM

COc1ccc2ccc(S(=O)(=O)N[C@H]3CCN(Cc4cc5c(N)nccc5cc4N)C3=O)cc2c1
Ki (Coagulation factor X): 80 nM
